The numbers were not newly measured in PMC12690571, “Green Synthesis of a Hyaluronan-Based Multimeric A9 Peptide System: Polysaccharide-A9 Conjugate with Enhanced HER2 Receptor Binding Affinity and Potential Biomedical Applications as an Active Material” (Biomacromolecules, 2025), which cites them from elsewhere.

This data set relates to HER2 receptor. More on the design: method as in not printed at the place. To be noted: A9 peptide; introduction, earlier work, ref not given.

As for H-QDVNTAVAW-NH2 [A9], the “binding affinity to HER2 receptor (in words)” value is “binds with high affinity”.
